Legend:
Format in all cases: cell-based, human
[1] = system: peripheral blood lymphocytes (PBL); assay: PBL proliferation, Promega cell titer assay; settings: for proliferation of PBL stimulated with PHA (OD at 530 nm): donor GR283; for proliferation of PBL (OD at 530 nm): Dex 10 μM
Protocol: Whole blood was drawn from GR283, a human volunteer with known allergies, into a glass vacutainer tube containing no anticoagulant. This blood was allowed to clot, and the serum was removed by centrifugation and then heat inactivated by placing it in a water bath at 56° C. for 30 minutes. Whole blood from GR283 was also drawn into a glass vacutainer tube containing heparin and used for peripheral blood lymphocytes (PBL) isolation as follows. Whole blood was layered over room temperature Histopaque 1077 solution and centrifuged at 2000 rpm for 15 minutes at room temperature. Cells at the plasma-Histopaque interface were then removed and washed with culture medium (IMDM medium with 10% heat-inactivated GR283 serum plus 1% penicillin/streptomycin) at 37° C.
Then, GR283's PBL in culture medium were added to the wells to give a final concentration of 150,000 cells per well, and the plates were incubated at 37° C., 5% CO2 for 24 hours. After this incubation, phytohemagglutinin (PHA) in culture medium was added to give final concentrations of 2 μg/ml, 5 μg/ml or 20 μg/ml, final total volume of 200 μl/well, and the cells were incubated for an additional 72 hours at 37° C., 5% CO2. All cultures were performed in triplicate.
Cell proliferation was assayed by adding 20 μl of Promega cell titer solution to each well and incubating the plate for an additional 4 hours. Promega cell titer solution is a solution containing a tetrazolium dye that is reduced by living cells to a formazan dye, and this reduction is proportional to the number of living cells present in the well. After the 4-hour incubation, the optical density (OD) at 530 nm of each well was measured. The OD at 530 nm for blank wells containing no cells was subtracted from the OD of the experimental wells.
Then, GR467's PBL in culture medium were added to the wells to give a final concentration of 150,000 cells per well, and the plates were incubated at 37° C., 5% CO2 for 24 hours. After this incubation, PHA was added to give a final concentration of 2 μg/ml, final total volume of 200 μl/well, and the cells were incubated for an additional 72 hours at 37° C., 5% CO2. All cultures were performed in triplicate.
Then, GR191's PBL in culture medium were added to the wells to give a final concentration of 150,000 cells per well, and the plates were incubated at 37° C., 5% CO2 for 24 hours. After this incubation, PHA was added to give final concentrations of 2 μg/ml and 5 μg/ml, final total volume of 200 μl/well, and the cells were incubated for an additional 72 hours at 37° C., 5% CO2. All cultures were performed in triplicate.

[2] = system: IkB-β; assay: Custom AntibodyArray, TRiPS cells: IkB-β; settings: 15 μg/ml, 30 minutes
Protocol: (§1) Day 18 TRiPS cells, 1×10^6, were incubated for 30 minutes at 37° C., either with nothing added (“Nil”), with 1 μl CD3/CD28 Dynabeads (Dynal, Oslo, Norway) (“CD3/CD28 beads”) per 100,000 cells, or with CD3/CD28 beads and 15 μg/ml of the compound of formula II (Cpd II). After the incubation, the cells were lysed in Cell-Lytic Mammalian Cell Extraction Reagent (Sigma). After centrifugation to pellet cellular debris, the supernatants (cell extracts) were obtained.
(§2) The cell extracts (supernatants) were then analyzed using a Custom AntibodyArray™ manufactured by Hypromatrix Inc., Worcester, Mass., following the manufacturer's instructions. The Custom AntibodyArray™ is a nylon membrane blotted with antibodies to the proteins listed below. Briefly, the cell extracts were incubated with duplicate Custom AntibodyArray™'s for 2 hours at room temperature with slow shaking, followed by three washes with Tris buffer (150 mM NaCl, 25 mM Tris, 0.05% Tween-20, pH 7.5). HRP-labeled antibodies specific for phosphorylated-tyrosine, phosphorylated-serine and phosphorylated-threonine in Tris buffer were added, and the arrays incubated for 2 hours. After three more washes with Tris buffer, a peroxidase-reactive luminescent substrate was added. The arrays were visualized by exposure to X-ray film. Densitometry of the X-ray films was measured by scanning and computer analysis.

[3] = system: MEKK1; assay: Custom AntibodyArray, TRiPS cells: MEKK1; settings: 15 μg/ml, 30 minutes
Protocol: as §1, §2

[4] = system: JNK3; assay: Custom AntibodyArray, TRiPS cells: JNK3; settings: 15 μg/ml, 30 minutes
Protocol: as §1, §2

[5] = system: JAK2; assay: Custom AntibodyArray, TRiPS cells: JAK2; settings: 15 μg/ml, 30 minutes
Protocol: as §1, §2

[6] = system: JNK2; assay: Custom AntibodyArray, TRiPS cells: JNK2; settings: 15 μg/ml, 30 minutes
Protocol: as §1, §2

[7] = system: STAT5b; assay: Custom AntibodyArray, TRiPS cells: STAT5b; settings: 15 μg/ml, 30 minutes
Protocol: as §1, §2

[8] = system: IkB-r; assay: Custom AntibodyArray, TRiPS cells: IkB-r; settings: 15 μg/ml, 30 minutes
Protocol: as §1, §2

[9] = system: PI3kinaseP85; assay: Custom AntibodyArray, TRiPS cells: PI3kinaseP85; settings: 15 μg/ml, 30 minutes
Protocol: as §1, §2

[10] = system: 14-3-3; assay: Custom AntibodyArray, TRiPS cells: 14-3-3; settings: 15 μg/ml, 30 minutes
Protocol: as §1, §2

[11] = system: STAT6; assay: Custom AntibodyArray, TRiPS cells: STAT6; settings: 15 μg/ml, 30 minutes
Protocol: as §1, §2

Compound	proliferation of PBL stimulated with PHA (OD at 530 nm) ([1]; methylphenidate at the other dose / PHA combinations)	proliferation of PBL stimulated with PHA (OD at 530 nm) ([1]; methylphenidate highest dose (50 μg/ml), lowest PHA dose (2 μg/ml))	proliferation of PBL (OD at 530 nm) ([1]; donor GR191, unstimulated and PHA 2, 5 μg/ml, Cpd II 5, 15, 25, 50 μg/ml, MP 50 μg/ml, FIGS. 5A-B)	proliferation of PBL stimulated with PHA (OD at 530 nm) ([1]; PHA 2, 5, 20 μg/ml, Cpd II 5, 15, 50 μg/ml, Dex 10 μg/ml, FIGS. 1A-C)	proliferation of PBL (OD at 530 nm) ([1]; donor GR467, unstimulated and 2 μg/ml PHA, Cpd II 5, 15, 25 μg/ml, MP 15 μg/ml, FIG. 2)	Effect of Cpd II on the protein in CD3/CD28 stimulated TRiPS cells [2]	Effect of Cpd II on the protein in CD3/CD28 stimulated TRiPS cells [3]	Effect of Cpd II on the protein in CD3/CD28 stimulated TRiPS cells [4]	Effect of Cpd II on the protein in CD3/CD28 stimulated TRiPS cells [5]	Effect of Cpd II on the protein in CD3/CD28 stimulated TRiPS cells [6]	Effect of Cpd II on the protein in CD3/CD28 stimulated TRiPS cells [7]	Effect of Cpd II on the protein in CD3/CD28 stimulated TRiPS cells [8]	Effect of Cpd II on the protein in CD3/CD28 stimulated TRiPS cells [9]	Effect of Cpd II on the protein in CD3/CD28 stimulated TRiPS cells [10]	Effect of Cpd II on the protein in CD3/CD28 stimulated TRiPS cells [11]
COC(=O)C(c1ccccc1)C1CCCCN1 (stereo not drawn) [methylphenidate]	did not significantly reduce the proliferation of the PHA-stimulated PBL	showed a significant effect at its highest dose and the lowest PHA dose	–	–	–	–	–	–	–	–	–	–	–	–	–
COC(=O)C(c1ccc(-c2ccccc2)cc1)C1CCCCN1 (stereo not drawn) [Cpd II]	–	–	significantly inhibited the proliferation of PBL, both unstimulated and stimulated with PHA	significantly inhibited the proliferation of PBL stimulated with PHA in a dose-dependent manner	significantly inhibited the proliferation of PBL, both unstimulated and stimulated with PHA	Decreased level back to basal levels (Nil control)	Decreased level back to basal levels (Nil control)	Decreased level back to basal levels (Nil control)	Activated	Decreased level back to basal levels (Nil control)	Activated	Decreased level back to basal levels (Nil control)	Activated	Slightly decreased the level	Slightly decreased the level
